In paper PMC3757052, “Molecular Cloning and Characterization of Novel Glutamate-Gated Chloride Channel Subunits from Schistosoma mansoni” (PLoS Pathogens, 2013) one finds EC50 data, which are given here for 1 compound.

In general, EC50 refers to the concentration that produces a half-maximal response. A lower EC50 goes with a more potent agent.

Structures are written as SMILES.

Common to all, as to experiment: two-electrode voltage clamp in Xenopus oocytes
Holding throughout (type): cell-based
In general terms: Two-electrode voltage clamp holds a large cell at a set potential and records current.

The target of one test is T1, SmGluCl-1 (Schistosoma mansoni, UniProt G4VR43).
T1 construct: full-length subunit co-expressed 1:1 with SmGluCl-2.1 (heteromer; no functional SmGluCl-1 homomer); with SmGluCl-2.1
T1 sequence (T2C5A6 entry or part of it): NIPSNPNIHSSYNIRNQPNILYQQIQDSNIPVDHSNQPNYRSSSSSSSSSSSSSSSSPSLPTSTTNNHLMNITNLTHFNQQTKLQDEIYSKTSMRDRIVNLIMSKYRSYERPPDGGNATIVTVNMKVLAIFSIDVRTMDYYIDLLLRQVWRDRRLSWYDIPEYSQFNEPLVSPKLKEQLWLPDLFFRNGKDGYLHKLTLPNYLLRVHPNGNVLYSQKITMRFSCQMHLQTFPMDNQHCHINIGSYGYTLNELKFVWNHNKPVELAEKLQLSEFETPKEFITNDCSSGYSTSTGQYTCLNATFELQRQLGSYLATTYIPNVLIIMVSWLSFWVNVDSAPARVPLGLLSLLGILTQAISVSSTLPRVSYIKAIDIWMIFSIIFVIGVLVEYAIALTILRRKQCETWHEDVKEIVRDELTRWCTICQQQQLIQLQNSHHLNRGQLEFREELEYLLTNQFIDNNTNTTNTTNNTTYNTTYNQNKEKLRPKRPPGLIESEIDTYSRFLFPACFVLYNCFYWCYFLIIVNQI
T1 sequence (G4VR43 entry or part of it): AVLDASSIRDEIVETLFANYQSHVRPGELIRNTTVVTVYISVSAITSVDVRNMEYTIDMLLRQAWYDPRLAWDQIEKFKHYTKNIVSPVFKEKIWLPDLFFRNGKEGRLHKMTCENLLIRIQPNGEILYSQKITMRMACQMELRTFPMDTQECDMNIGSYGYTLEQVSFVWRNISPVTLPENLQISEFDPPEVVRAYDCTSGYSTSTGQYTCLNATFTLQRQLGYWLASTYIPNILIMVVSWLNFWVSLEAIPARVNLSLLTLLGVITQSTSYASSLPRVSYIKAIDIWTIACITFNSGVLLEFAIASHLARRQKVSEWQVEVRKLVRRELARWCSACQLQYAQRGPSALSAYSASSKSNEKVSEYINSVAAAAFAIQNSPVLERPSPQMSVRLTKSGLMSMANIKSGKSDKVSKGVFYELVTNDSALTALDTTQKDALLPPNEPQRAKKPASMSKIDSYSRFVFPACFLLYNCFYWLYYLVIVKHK

In another test the target is T2, SmGluCl-2.1 (SmGluCl-2) (Schistosoma mansoni, UniProt T2C5A6).
T2 construct: gene GluCl; full-length subunit isoform 1, homomeric receptor (KC861382)
T2 sequence (T2C5A6 entry or part of it): as the sequence (T2C5A6 entry or part of it) above

In a further test the target is T3, SmGluCl-3 (Schistosoma mansoni, UniProt T2C5W6).
T3 construct: gene GluCl; full-length subunit, homomeric receptor (KC861384)
T3 sequence (T2C5W6 entry or part of it): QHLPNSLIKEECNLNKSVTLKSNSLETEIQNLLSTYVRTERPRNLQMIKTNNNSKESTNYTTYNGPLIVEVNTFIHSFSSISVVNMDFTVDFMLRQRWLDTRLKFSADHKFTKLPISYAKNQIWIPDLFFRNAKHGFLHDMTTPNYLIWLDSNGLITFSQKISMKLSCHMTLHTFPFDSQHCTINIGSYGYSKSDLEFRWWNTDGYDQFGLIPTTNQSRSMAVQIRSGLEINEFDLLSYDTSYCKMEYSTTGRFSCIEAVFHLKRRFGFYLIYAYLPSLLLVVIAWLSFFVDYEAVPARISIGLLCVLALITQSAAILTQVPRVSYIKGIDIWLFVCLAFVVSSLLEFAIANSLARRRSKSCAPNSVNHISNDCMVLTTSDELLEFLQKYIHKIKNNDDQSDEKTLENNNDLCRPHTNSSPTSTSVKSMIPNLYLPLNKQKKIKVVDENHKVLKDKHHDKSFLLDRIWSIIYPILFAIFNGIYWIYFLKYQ

For `N[C@@H](CCC(=O)O)C(=O)O` [L-glutamate], the EC50 worked out at 26.3 ± 2 µM at SmGluCl-1, 11.8 ± 0.6 µM on SmGluCl-2.1 (SmGluCl-2) and 6.9 ± 0.5 µM on SmGluCl-3.
